Consider 34 compounds from US10730889B2, “Amido spirocyclic amide and sulfonamide derivatives” (Forma TM, LLC, priority 2012, dated 2020).

The test system of one test is A2780 cells. Briefly: In-vitro cell proliferation assay (SRB, 72 hours). The test is classed as cell-based. The conditions noted are these: A2780 cells, 72 hours, SRB; read-out: Cell Proliferation (IC50).
On to `Cc1nc(C)c(C(=O)N2CCC3(CC2)CC3CNC(=O)c2cc3ccncc3o2)o1` (stereo not shown) [Example 385, N-[[6-(2,4-dimethyloxazole-5-carbonyl)-6-azaspiro[2.5]octan-2-yl]methyl]furo[2,3-c]pyridine-2-carboxamide], for which the IC50 amounted to 17.1 nM.

The test is the same for the next values; noted with them: Homo sapiens, A2780, 72 h, A2780 cells, 72 hours, SRB; read-out: Cell Proliferation (IC50).
On to `Cn1cnc(C(=O)N2CCC3(CC2)CC3CNC(=O)c2cc3ccncc3o2)c1` (stereo not shown) [Example 105, N-[[6-(1-methylimidazole-4-carbonyl)-6-azaspiro[2.5]octan-2-yl]methyl]furo[2,3-c]pyridine-2-carboxamide], for which the IC50 worked out at 755 nM.
Turning to `CC1(OC(=O)N2CCC3(CC2)CC3CNC(=O)c2cc3ccncc3o2)COC1` (stereo not shown) [Example 417, (3-methyloxetan-3-yl) 2-[(furo[2,3-c]pyridine-2-carbonylamino)methyl]-6-azaspiro[2.5]octane-6-carboxylate], the IC50 amounted to 830 nM.
On the same count and under the same terms, the result for `O=C(Cc1ccccc1)N1CCC2(CC1)CC2CNC(=O)N1Cc2ccncc2C1` (stereo not shown) [Example 47, N-[[6-(2-phenylacetyl)-6-azaspiro[2.5]octan-2-yl]methyl]-1,3-dihydropyrrolo[3,4-c]pyridine-2-carboxamide] reads 12.6 nM.
Regarding `Cc1nn(Cc2ccccc2)c(C)c1C(=O)N1CCC2(CC1)CC2CNC(=O)c1cc2ccncc2o1` (stereo not shown) [Example 295, N-[[6-(1-benzyl-3,5-dimethyl-pyrazole-4-carbonyl)-6-azaspiro[2.5]octan-2-yl]methyl]furo[2,3-c]pyridine-2-carboxamide], the IC50 is 0.944 nM.
`O=C(NCC1CC12CCN(C(=O)c1ccnc(N3CCOCC3)c1)CC2)c1cc2ccncc2o1` (stereo not shown) [Example 129, N-[[6-(2-morpholinopyridine-4-carbonyl)-6-azaspiro[2.5]octan-2-yl]methyl]furo[2,3-c]pyridine-2-carboxamide]: the IC50 was determined as 37.3 nM.
As to `O=C(NCC1CC12CCN(C(=O)c1n[nH]c3c1CCC3)CC2)c1cc2ccncc2o1` (stereo not shown) [Example 333, N-[[6-(1,4,5,6-tetrahydrocyclopenta[c]pyrazole-3-carbonyl)-6-azaspiro[2.5]octan-2-yl]methyl]furo[2,3-c]pyridine-2-carboxamide], the IC50 came to 6.81 nM.
Still for that read-out and setting: the result for `CC(C)N1CCC(CC(=O)N2CCC3(CC2)CC3CNC(=O)c2cc3ccncc3o2)CC1` (stereo not shown) [Example 148, N-[[6-[2-(1-isopropyl-4-piperidyl)acetyl]-6-azaspiro[2.5]octan-2-yl]methyl]furo[2,3-c]pyridine-2-carboxamide] reads 102 nM; that for `O=C(CCN1CCOCC1)N1CCC2(CC1)CC2CNC(=O)N1Cc2ccncc2C1` (stereo not shown) [Example 229, N-[[6-(3-morpholinopropanoyl)-6-azaspiro[2.5]octan-2-yl)methyl]-1,3-dihydropyrrolo[3,4-c]pyridine-2-carboxamide], 18.4 nM; that for `CC(C)(C)c1cc(C(=O)N2CCC3(CC2)CC3CNC(=O)c2cc3ccncc3o2)[nH]n1` (stereo not shown) [Example 322, N-[[6-(3-tert-butyl-1H-pyrazole-5-carbonyl)-6-azaspiro[2.5]octan-2-yl]methyl]furo[2,3-c]pyridine-2-carboxamide], 15.1 nM.
On the same count and under the same terms, then `CC(C)(CO)OC(=O)N1CCC2(CC1)CC2CNC(=O)N1Cc2ccncc2C1` (stereo not shown) [Example 351, (2-hydroxy-1,1-dimethyl-ethyl) 2-[(1,3-dihydropyrrolo[3,4-c]pyridine-2-carbonylamino)methyl]-6-azaspiro[2.5]octane-6-carboxylate], with 3.56 nM; and `CC(C)(C)OCC(=O)N1CCC2(CC1)CC2CNC(=O)c1cc2ccncc2o1` (stereo not shown) [Example 38, N-[[6-(2-tert-butoxyacetyl)-6-azaspiro[2.5]octan-2-yl]methyl]furo[2,3-c]pyridine-2-carboxamide], with 18.8 nM.
Same read-out and setting: the result for `CC(C(=O)N1CCC2(CC1)CC2CNC(=O)c1cc2ccncc2o1)N1CCOCC1` (stereo not shown) [Example 75, N-[[6-(2-morpholinopropanoyl)-6-azaspiro[2.5]octan-2-yl]methyl]furo[2,3-c]pyridine-2-carboxamide] reads 80.9 nM.
Consider `N#Cc1cccc(C(=O)N2CCC3(CC2)CC3CNC(=O)c2cc3ccncc3o2)c1` (stereo not shown) [Example 243, N-[[6-(3-cyanobenzoyl)-6-azaspiro[2.5]octan-2-yl]methyl]furo[2,3-c]pyridine-2-carboxamide], for which the IC50 was 434 nM.
Still for that read-out and setting: the result for `Cc1ccc(NC(=O)N2CCC3(CC2)CC3CNC(=O)c2cc3ccncc3o2)cc1` (stereo not shown) [Example 159, N-[[6-(p-tolylcarbamoyl)-6-azaspiro[2.5]octan-2-yl]methyl]furo[2,3-c]pyridine-2-carboxamide] reads 274 nM; that for `O=C(NCC1CC12CCN(C(=O)c1cccc3[nH]ncc13)CC2)c1cc2ccncc2o1` (stereo not shown) [Example 240, N-[[6-(1H-indazole-4-carbonyl)-6-azaspiro[2.5]octan-2-yl]methyl]furo[2,3-c]pyridine-2-carboxamide], 18.7 nM; that for `O=C(NCC1CC12CCN(C(=O)Cc1cnccn1)CC2)c1cc2ccncc2o1` (stereo not shown) [Example 50, N-[[6-(2-pyrazin-2-ylacetyl)-6-azasptro[2.5]octan-2-yl]methyl]furo[2,3-c]pyridine-2-carboxamide], 2000 nM.
The same measure, in the same setting: the result for `N#Cc1ccc(C(=O)N2CCC3(CC2)CC3CNC(=O)c2cc3ccncc3o2)cc1` (stereo not shown) [Example 242, N-[[6-(4-cyanobenzoyl)-6-azaspiro[2.5]octan-2-yl]methyl]furo[2,3-c]pyridine-2-carboxamide] reads 713 nM.
The same measure, in the same setting: then `Cc1noc(C)c1C(=O)N1CCC2(CC1)CC2CNC(=O)c1cc2ccncc2o1` (stereo not shown) [Example 125, N-[[6-(3,5-dimethylisoxazole-4-carbonyl)-6-azaspiro[2.5]octan-2-yl]methyl]furo[2,3-c]pyridine-2-carboxamide], with 221 nM.
`O=C(NCC1CC12CCN(C(=O)CC1CCN(CC(F)(F)F)CC1)CC2)c1cc2cnccc2[nH]1` (stereo not shown) [Example 40, N-[[6-[2-[1-(2,2,2-trifluoroethyl)-4-piperidyl]acetyl]-6-azaspiro[2.5]octan-2-yl]methyl]-1H-pyrrolo[3,2-c]pyridine-2-carboxamide]: the IC50 stood at 24.3 nM.
Still for that read-out and setting: then `O=C(NCC1CC12CCN(C(=O)c1ccno1)CC2)c1cc2ccncc2o1` (stereo not shown) [Example 272, N-[[6-(isoxazole-5-carbonyl)-6-azaspiro[2.5]octan-2-yl]methyl]furo[2,3-c]pyridine-2-carboxamide], with 2000 nM.
Same read-out and setting: then `CC(C)OC(=O)N1CCC2(CC1)CC2CNC(=O)c1cc2ccncc2o1` (stereo not shown) [Example 416, isopropyl 2-[(furo[2,3-c]pyridine-2-carbonylamino)methyl]-6-azaspiro[2.5]octane-6-carboxylate], with 461 nM; and `CC(C)(O)COC(=O)N1CCC2(CC1)CC2CNC(=O)N1Cc2ccncc2C1` (stereo not shown) [Example 376, (2-hydroxy-2-methyl-propyl) 2-[(1,3-dihydropyrrolo[3,4-c]pyridine-2-carbonylamino)methyl]-6-azaspiro[2.5]octane-6-carboxylate], with 16.1 nM; and `CCn1cc(C(=O)N2CCC3(CC2)CC3CNC(=O)c2cc3ccncc3o2)c(C)n1` (stereo not shown) [Example 138, N-[[6-(1-ethyl-3-methyl-pyrazole-4-carbonyl)-6-azaspiro[2.5]octan-2-yl)methyl]furo[2,3-c]pyridine-2-carboxamide], with 2000 nM.
`CC(C)(C)OC(=O)N1CCC2(CC1)CC2CNC(=O)N1Cc2cn[nH]c2C1` (stereo not shown) [Example 274, tert-Butyl 2-[(4,6-dihydro-1H-pyrrolo[3,4-c]pyrazole-5-carbonylamino)methyl]-6-azaspiro[2.5]octane-6-carboxylate]: the IC50 turned out to be 2000 nM.
As to `CC(=O)N1CCC(C(=O)N2CCC3(CC2)CC3CNC(=O)c2cc3ccncc3o2)CC1` (stereo not shown) [Example 82, N-[[6-(1-acetylpiperidine-4-carbonyl)-6-azaspiro[2.5]octan-2-yl]methyl]furo[2,3-c]pyridine-2-carboxamide], the IC50 is 710 nM.
Still for that read-out and setting: the result for `O=C(NCC1CC12CCN(C(=O)c1cc3ncccn3n1)CC2)c1cc2ccncc2o1` (stereo not shown) [Example 313, N-[[6-(pyrazolo[1,5-a]pyrimidine-2-carbonyl)-6-azaspiro[2.5]octan-2-yl]methyl]furo[2,3-c]pyridine-2-carboxamide] reads 15.9 nM; that for `CS(=O)(=O)N1CCCC(C(=O)N2CCC3(CC2)CC3CNC(=O)c2cc3ccncc3o2)C1` (stereo not shown) [Example 73, N-[[6-(1-methylsulfonylpiperidine-3-carbonyl)-6-azaspiro[2.5]octan-2-yl]methyl]furo[2,3-c]pyridine-2-carboxamide], 25.8 nM.
The same measure, in the same setting: then `CCn1nccc1C(=O)N1CCC2(CC1)CC2CNC(=O)c1cc2ccncc2o1` (stereo not shown) [Example 297, N-[[6-(2-ethylpyrazole-3-carbonyl)-6-azaspiro[2.5]octan-2-yl]methyl]furo[2,3-c]pyridine-2-carboxamide], with 278 nM.
Same read-out and setting: then `Cc1nn(C)c(C)c1C(=O)N1CCC2(CC1)CC2CNC(=O)c1cc2ccncc2o1` (stereo not shown) [Example 181, N-[[6-(1,3,5-trimethylpyrazole-4-carbonyl)-6-azaspiro[2.5]octan-2-yl]methyl]furo[2,3-c]pyridine-2-carboxamide], with 3.31 nM; and `CC(C(=O)N1CCC2(CC1)CC2CNC(=O)c1cc2ccncc2o1)N1CCCC1` (stereo not shown) [Example 53, N-[[6-(2-pyrrolidin-1-ylpropanoyl)-6-azaspiro[2.5]octan-2-yl]methyl]furo[2,3-c]pyridine-2-carboxamide], with 846 nM; and `O=C(NCC1CC12CCN(C(=O)c1ccc(C(F)(F)F)nc1)CC2)c1cc2ccncc2o1` (stereo not shown) [Example 257, N-[[6-[6-(trifluoromethyl]pyndine-3-carbonyl]-6-azaspiro[2.5]octan-2-yl]methyl]furo[2,3-c]pyridine-2-carboxamide], with 2000 nM.
As to `N#CCC(=O)N1CCC2(CC1)CC2CNC(=O)N1Cc2ccncc2C1` (stereo not shown) [Example 191, N-[[6-(2-cyanoacetyl)-6-azaspiro[2.5]octan-2-yl]methyl]-1,3-dihydropyrrolo[3,4-c]pyridine-2-carboxamide], the IC50 turned out to be 1040 nM.
Same read-out and setting: then `O=C(NCC1CC12CCN(C(=O)c1ccc3nccnc3c1)CC2)c1cc2ccncc2o1` (stereo not shown) [Example 261, N-[[6-(quinoxaline-6-carbonyl)-6-azaspiro[2.5]octan-2-yl]methyl]furo[2,3-c]pyridine-2-carboxamide], with 15.8 nM.
